In test [1] the test system is human embryonal carcinoma (EC) cell line NT2/D1. Briefly: Retinoic acid induction of NT2/D1 cells (differentiation, northern analysis). It is filed as cell-based. The conditions noted are these: nine days of RA, 0.01 to 10 µM, normalized to β-actin probe. Here is the method:
The human embryonal carcinoma (EC) cell line NT2/D1 can be induced to differentiate at concentrations of retinoic acid (RA) varying from 0.01 to 10 µM, with the proportion of differentiating EC cells ranging from 50% at […] RA to greater than 99% at […] RA. The expression of MK and HBNF during differentiation of NT2/D1 is studied, at concentrations ranging from 0.01 to 10 µM. After nine days of exposure to RA, total RNA was extracted from cells and probed for gene expression by northern analysis. Expression of both gene follows a similar pattern. Levels of mRNA expression remain at a steady background level. When RNA hybridization signals are normalized to a control β-actin probe, the maximum increases are calculated to be 6-fold for HBNF and 11-fold for MK. […] In this cell line, MK gene expression is induced 8-10 fold above background.
The human embryonal carcinoma cell line Nt2/D1 is grown. For retinoic acid induction, cells are grown and resuspended in DMEM medium containing 10% bovine calf serum and resuspended in DMEM medium containing 10% bovine calf serum (Hyclone Laboratories, Inc.) at a density of 5 x 10⁵ cells per 100 mm dish. Varying concentrations of all-trans retinoic acid in dimethyl sulfoxide (10 µl) is added and cells are incubated for 9 days. Fresh medium and RA are added at days 4 and 8. […]

The test system of the next test is mouse EC cell line, HM-1. The conditions noted are these: retinoic acid induction; cited from earlier work.

Regarding `CC1=C(/C=C/C(C)=C/C=C/C(C)=C/C(=O)O)C(C)(C)CCC1` [RA, all-trans retinoic acid], in test [1], the “maximum increase of HBNF mRNA expression” value was determined as 6 fold and the “maximum increase of MK mRNA expression” value is 11 fold. Besides, the “MK gene expression induced above background” value in the test on mouse EC cell line, HM-1 is reported as 8-10 fold.

The record behind these values is patent publication EP0535336A2, “MK protein as cell growth inhibitor” (AMERICAN CYANAMID COMPANY, priority 1991, dated 1993).
